Measurements as given in patent publication US20050090529A1, “3,5 Disubstituted indazole compounds with nitrogen-bearing 5-membered heterocycles, pharmaceutical compositions, and methods for mediating or inhibiting cell proliferation” (PFIZER INC, priority 2003, published 2005).
In brackets after ≈: the same amount, converted by molar mass.

Assays:
CDK2/Cyclin A = molecular target: T1, CDK2/Cyclin A (Homo sapiens, UniProt P24941); test: Inhibition of CDK2/Cyclin A retinoblastoma kinase activity (apparent Ki); format: biochemical; conditions: read-out: CDK2 Ki
T1 construct: made in house; host or cells: CDK2: insect cells (baculovirus); cyclin A: E. coli
Experimental: Cyclin-dependent kinase activity was measured by quantifying the enzyme-catalyzed, time-dependent incorporation of radioactive phosphate from [^32P]ATP or [^33P]ATP into a protein substrate. […] Reactions were initiated with enzyme, incubated at 30° C., and terminated after 20 minutes by the addition of ethylenediaminetetraacetic acid (EDTA) to 250 mM. […] Radioactivity was quantified by exposing the dried membranes to a phosphorimager.
Apparent Ki values were measured by assaying enzyme activity in the presence of different inhibitor compound concentrations and subtracting the background radioactivity measured in the absence of enzyme. Inhibition data were fit to an equation for competitive inhibition using Kaleidagraph (Synergy Software), or were fit to an equation for competitive tight-binding inhibition using the software KineTic (BioKin, Ltd.).
A complex of CDK2 and proteolyzed cyclin A was prepared and purified by gel filtration. […] Ki values were measured as described above.

[1] = Measurement of kinetic solubility; conditions: 100 mM sodium phosphate buffer, pH 6.5, aqueous buffer, kinetic from dmso stock
Experimental: Kinetic solubility was determined with a […] stock solution from the compound(s) of interest. […] Samples and standards were then centrifuged and an aliquot was removed for HPLC analysis. Samples and standards were analyzed by HPLC and a final concentration for the sample was determined based on a one-point calibration curve from the corresponding standard. Results were reported as μg's/mL.

Row | Ki (CDK2/Cyclin A) [nM] | solubility [1] [µg/mL] | Structure (SMILES)
1 | < 50 | 20 to 120 (≈ 36.9 to 222 µM) | CCNCc1cncc(-c2ccc3[nH]nc(-c4nc(-c5ccccc5)c(C(=O)NCc5ccccc5)[nH]4)c3c2)c1C [Example 5, 2-[5-(5-Ethylaminomethyl-4-methyl-pyridin-3-yl)-1H-indazol-3-yl]-5-phenyl-3H-imidazole-4-carboxylic acid benzylamide]
2 | 50 to 200 | 20 to 120 (≈ 39.4 to 236 µM) | CCNCc1cncc(-c2ccc3[nH]nc(-c4nc(-c5ccccc5)c(C(=O)NCC(C)C)[nH]4)c3c2)c1C [Example 7, 2-[5-(5-Ethylaminomethyl-4-methyl-pyridin-3-yl)-1H-indazol-3-yl]-5-phenyl-3H-imidazole-4-carboxylic acid isobutyl-amide]
3 | 50 to 200 | 20 to 120 (≈ 38.5 to 231 µM) | CCNCc1cncc(-c2ccc3[nH]nc(-c4nc(-c5ccccc5)c(C(=O)NC5CCCC5)[nH]4)c3c2)c1C [Example 8, 2-[5-(5-Ethylaminomethyl-4-methyl-pyridin-3-yl)-1H-indazol-3-yl]-5-phenyl-3H-imidazole-4-carboxylic acid cyclopentylamide]
4 | > 200 | 20 to 120 (≈ 38.5 to 231 µM) | CCNCc1cncc(-c2ccc3[nH]nc(-c4nc(-c5ccccc5)c(C(=O)N5CCCCC5)[nH]4)c3c2)c1C [Example 9, {2-[5-(5-Ethylaminomethyl-4-methyl-pyridin-3-yl)-1H-indazol-3-yl]-5-phenyl-3H-imidazol-4-yl}-piperidin-1-yl-methanone]
5 | > 200 | 20 to 120 (≈ 38.3 to 230 µM) | CCNCc1cncc(-c2ccc3[nH]nc(-c4nc(-c5ccccc5)c(C(=O)N5CCOCC5)[nH]4)c3c2)c1C [Example 10, {2-[5-(5-Ethylaminomethyl-4-methyl-pyridin-3-yl)-1H-indazol-3-yl]-5-phenyl-3H-imidazol-4-yl}-morpholin-4-yl-methanone]
6 | 50 to 200 | > 120 | CCNCc1cncc(-c2ccc3[nH]nc(-c4nc(-c5ccccc5)c(C(=O)NCCCOC)[nH]4)c3c2)c1C [Example 11, 2-[5-(5-Ethylaminomethyl-4-methyl-pyridin-3-yl)-1H-indazol-3-yl]-5-phenyl-3H-imidazole-4-carboxylic acid (3-methoxy-propyl)-amide]
7 | > 200 | 20 to 120 (≈ 36.5 to 219 µM) | CCNCc1cncc(-c2ccc3[nH]nc(-c4nc(-c5ccccc5)c(C(=O)N(C)C5CCCCC5)[nH]4)c3c2)c1C [Example 13, 2-[5-(5-Ethylaminomethyl-4-methyl-pyridin-3-yl)-1H-indazol-3-yl]-5-phenyl-3H-imidazole-4-carboxylic acid cyclohexyl-methyl-amide]
8 | > 200 | > 120 | CCNCc1cncc(-c2ccc3[nH]nc(-c4nc(-c5ccccc5)c(C(=O)N5CCC[C@H]5COC)[nH]4)c3c2)c1C [Example 14, {2-[5-(5-Ethylaminomethyl-4-methyl-pyridin-3-yl)-1H-indazol-3-yl]-5-phenyl-3H-imidazol-4-yl}-(2-methoxymethyl-pyrrolidin-1-yl)-methanone]
9 | > 200 | > 120 | CCNCc1cncc(-c2ccc3[nH]nc(-c4nc(-c5ccccc5)c(C(=O)N5CCC[C@@H]5COC)[nH]4)c3c2)c1C [Example 15, {2-[5-(5-Ethylaminomethyl-4-methyl-pyridin-3-yl)-1H-indazol-3-yl]-5-phenyl-3H-imidazol-4-yl}-(2-methoxymethyl-pyrrolidin-1-yl)-methanone]
10 | < 50 | 20 to 120 (≈ 51.5 to 309 µM) | CCCc1nc(-c2n[nH]c3ccc(-c4cncc(CNCC)c4C)cc23)[nH]c1C [Example 19, Ethyl-{4-methyl-5-[3-(5-methyl-4-propyl-1H-imidazol-2-yl)-1H-indazol-5-yl]-pyridin-3-ylmethyl}-amine]
11 | < 50 | 20 to 120 (≈ 49.7 to 298 µM) | CCNCc1cncc(-c2ccc3[nH]nc(-c4nc(CC(C)C)c(C)[nH]4)c3c2)c1C [Example 20, Ethyl-{5-[3-(4-isobutyl-5-methyl-1H-imidazol-2-yl)-1H-indazol-5-yl]-4-methyl-pyridin-3-ylmethyl}-amine]
12 | < 50 | > 120 | CCNCc1cncc(-c2ccc3[nH]nc(-c4nc(CC)c(CC)[nH]4)c3c2)c1C [Example 22, {5-[3-(4,5-Diethyl-1H-imidazol-2-yl)-1H-indazol-5-yl]-4-methyl-pyridin-3-ylmethyl}-ethyl-amine]
13 | < 50 | > 120 | CCNCc1cncc(-c2ccc3[nH]nc(-c4nc(CC)c(C)[nH]4)c3c2)c1C [Example 23, Ethyl-{5-[3-(4-ethyl-5-methyl-1H-imidazol-2-yl)-1H-indazol-5-yl]-4-methyl-pyridin-3-ylmethyl}-amine]
14 | < 50 | > 120 | CCNCc1cncc(-c2ccc3[nH]nc(-c4nc(C)c(C)[nH]4)c3c2)c1C [Example 24, {5-[3-(4,5-Dimethyl-1H-imidazol-2-yl)-1H-indazol-5-yl]-4-methyl-pyridin-3-ylmethyl}-ethyl-amine]
15 | < 50 | 20 to 120 (≈ 43.8 to 263 µM) | CCNCc1cncc(-c2ccc3[nH]nc(-c4nc(-c5ccc(Cl)cc5)c(C)[nH]4)c3c2)c1C [Example 25, (5-{3-[4-(4-Chloro-phenyl)-5-methyl-1H-imidazol-2-yl]-1H-indazol-5-yl}-4-methyl-pyridin-3-ylmethyl)-ethyl-amine]
16 | < 50 | < 20 | CCNCc1cncc(-c2ccc3[nH]nc(-c4nc(-c5cc(Cl)cc(Cl)c5)c(C)[nH]4)c3c2)c1C [Example 26, (5-{3-[4-(3,5-Dichloro-phenyl)-5-methyl-1H-imidazol-2-yl]-1H-indazol-5-yl}-4-methyl-pyridin-3-ylmethyl)-ethyl-amine]
17 | < 50 | < 20 | CCNCc1cncc(-c2ccc3[nH]nc(-c4nc(-c5cccc(C(F)(F)F)c5)c(C)[nH]4)c3c2)c1C [Example 27, Ethyl-(4-methyl-5-{3-[5-methyl-4-(3-trifluoromethyl-phenyl)-1H-imidazol-2-yl]-1H-indazol-5-yl}-pyridin-3-ylmethyl)-amine]
18 | < 50 | 20 to 120 (≈ 40.8 to 245 µM) | CCNCc1cncc(-c2ccc3[nH]nc(-c4nc(-c5ccc(C(F)(F)F)cc5)c(C)[nH]4)c3c2)c1C [Example 28, Ethyl-(4-methyl-5-{3-[5-methyl-4-(4-trifluoromethyl-phenyl)-1H-imidazol-2-yl]-1H-indazol-5-yl}-pyridin-3-ylmethyl)-amine]
19 | < 50 | 20 to 120 (≈ 47.3 to 284 µM) | CCNCc1cncc(-c2ccc3[nH]nc(-c4nc(-c5ccccc5)c(C)[nH]4)c3c2)c1C [Example 29, Ethyl-{4-methyl-5-[3-(5-methyl-4-phenyl-1H-imidazol-2-yl)-1H-indazol-5-yl]-pyridin-3-ylmethyl}-amine]
20 | < 50 | 20 to 120 (≈ 49 to 294 µM) | CCNCc1cncc(-c2ccc3[nH]nc(-c4nc(-c5ccccc5)c[nH]4)c3c2)c1C [Example 30, Ethyl-{4-methyl-5-[3-(4-phenyl-1H-imidazol-2-yl)-1H-indazol-5-yl]-pyridin-3-ylmethyl}-amine]
21 | < 50 | 20 to 120 (≈ 46.9 to 281 µM) | CCNCc1cncc(-c2ccc3[nH]nc(-c4nc(-c5ccc(F)cc5)c[nH]4)c3c2)c1C [Example 31, Ethyl-(5-{3-[4-(4-fluoro-phenyl)-1H-imidazol-2-yl]-1H-indazol-5-yl}-4-methyl-pyridin-3-ylmethyl)-amine]
22 | < 50 | > 120 | CCNCc1cncc(-c2ccc3[nH]nc(-c4nc(-c5cccc(F)c5)c[nH]4)c3c2)c1C [Example 32, Ethyl-(5-{3-[4-(3-fluoro-phenyl)-1H-imidazol-2-yl]-1H-indazol-5-yl}-4-methyl-pyridin-3-ylmethyl)-amine]
23 | < 50 | 20 to 120 (≈ 45.6 to 274 µM) | CCNCc1cncc(-c2ccc3[nH]nc(-c4nc(-c5cccc(OC)c5)c[nH]4)c3c2)c1C [Example 35, Ethyl-(5-{3-[4-(3-methoxy-phenyl)-1H-imidazol-2-yl]-1H-indazol-5-yl}-4-methyl-pyridin-3-ylmethyl)-amine]
24 | < 50 | > 120 | COCc1cncc(-c2ccc3[nH]nc(-c4nc5c([nH]4)CCCC5)c3c2)c1C [Example 41, 5-(5-Methoxymethyl-4-methyl-pyridin-3-yl)-3-(4,5,6,7-tetrahydro-1H-benzoimidazol-2-yl)-1H-indazole]
25 | 50 to 200 | > 120 | COCc1cncc(-c2ccc3[nH]nc(-c4ncc[nH]4)c3c2)c1C [Example 42, 3-(1H-Imidazol-2-yl)-5-(5-methoxymethyl-4-methyl-pyridin-3-yl)-1H-indazole]
26 | 50 to 200 | 20 to 120 (≈ 51.6 to 310 µM) | CCOCc1cncc(-c2ccc3[nH]nc(-c4nc5c([nH]4)CCCC5)c3c2)c1C [Example 43, 5-(5-Ethoxymethyl-4-methyl-pyridin-3-yl)-3-(4,5,6,7-tetrahydro-1H-benzoimidazol-2-yl)-1H-indazole]
27 | 50 to 200 | > 120 | CCOCc1cncc(-c2ccc3[nH]nc(-c4ncc[nH]4)c3c2)c1C [Example 44, 5-(5-Ethoxymethyl-4-methyl-pyridin-3-yl)-3-(1H-imidazol-2-yl)-1H-indazole]
28 | < 50 | > 120 | CCNCc1cncc(-c2ccc3[nH]nc(-c4nc5c([nH]4)CCCC5)c3c2)c1CC [Example 46, Ethyl-{4-ethyl-5-[3-(4,5,6,7-tetrahydro-1H-benzoimidazol-2-yl)-1H-indazol-5-yl]-pyridin-3-ylmethyl}-amine]
